Positions count from the first letter of the chain named. pIC50: −log10 of the molar value. Like-named read-outs stand apart in the source and are kept apart here.
Key:
CSF-1R [1] = tested on: CSF-1R; parameters: method as in PMID 28665128; conditions: cited from earlier work
FGFR4 [2] = tested on: FGFR4; parameters: method as in PMID 28665128; conditions: cited from earlier work
FGFR3 [3] = tested on: FGFR3; parameters: method as in PMID 28665128; conditions: cited from earlier work
FGFR1^V561M = target: T1, FGFR1^V561M (Homo sapiens, UniProt P11362, V561M); assay: Kinase inhibition assay (ADP-Glo), FGFR1 V561M gatekeeper mutant; assay type: biochemical
T1 construct: FGFR1 (residues 458–765); 6×His (PreScission-cleavable) (N, cleaved yes); made in house; host or cells: E. coli BL21 Rosetta
Protocol: (§1) FGFRs were prepared as previously described[6],[34],[44],[45]. Briefly, FGFR1 (residues 458–765), FGFR2 (residues 458–768), FGFR3 (residues 450–758) as well as FGFR4 (residues 445–753), and their mutants, FGFR1^C584S, FGFR1^V561M, FGFR2^V564I, FGFR2^V564F and FGFR3^V555M, were cloned into a modified pET28a vector in frame with an N-terminal PreScission-cleavable 6×His tag and expressed in E. coli BL21 Rosetta cells. For crystallization, FGFR1^C584S was co-expressed with untagged YOPH to induce non-phosphorylated proteins. The harvested cell pellets were lysed in a buffer containing 20 mM Tris-HCl, pH 8.0, 500 mM NaCl, 20 mM imidazole and 0.5 mM TCEP, and FGFRs were purified over Ni-NTA resin followed by enzymatic digestion with PreScission for 6×His-tag cleavage and further purified by anion exchange chromatography (GE Healthcare). For crystallization, FGFR1^C584S was further purified by gel filtration chromatography (GE Healthcare). […]
(§2) The inhibition by sulfatinib was determined by the measurement of kinase activities following the ADP-Glo assay kit (Promega)[6],[44],[45]. […] Following the addition of detection reagent to convert the generated ADP to ATP, the luminescence was detected by a plate reader (Perkin Elmer). Samples were run in triplicate and the IC50 values were calculated by log[Inhibitor] versus kinase activity ratio in GraphPad Prism 8.0.

FGFR1 = target: T2, FGFR1 (Homo sapiens, UniProt P11362); assay: Kinase inhibition assay (ADP-Glo), FGFR1; assay type: biochemical; conditions: wild-type kinase domain
T2 construct: FGFR1 (residues 458–765); 6×His (PreScission-cleavable) (N, cleaved yes); made in house; host or cells: E. coli BL21 Rosetta
Protocol: as §1, §2

FGFR2^V564F = target: T3, FGFR2^V564F (Homo sapiens, UniProt P21802, V564F); assay: Kinase inhibition assay (ADP-Glo), FGFR2 V564F gatekeeper mutant; assay type: biochemical
T3 construct: FGFR2 (residues 458–768); 6×His (PreScission-cleavable) (N, cleaved yes); made in house; host or cells: E. coli BL21 Rosetta
Protocol: as §1, §2

FGFR2^V564I = target: T4, FGFR2^V564I (Homo sapiens, UniProt P21802, V564I); assay: Kinase inhibition assay (ADP-Glo), FGFR2 V564I gatekeeper mutant; assay type: biochemical
T4 construct: FGFR2 (residues 458–768); 6×His (PreScission-cleavable) (N, cleaved yes); made in house; host or cells: E. coli BL21 Rosetta
Protocol: as §1, §2

CSF-1R [4] = target: T5, CSF-1R (Homo sapiens, UniProt P07333, C667T/C830S/C907T/DEL696-741); assay: Kinase inhibition assay (ADP-Glo), CSF-1R; assay type: biochemical; conditions: wild-type kinase domain
T5 construct: Wild-type CSF-1R (residues 542–919, △696–741, C677T, C830S, C907T); 6×His (N); made in house; host or cells: SF9 insect cells (baculovirus)
T5 sequence (P07333 with tags, fused parts or gaps C667T/DEL696-741/C830S/C907T): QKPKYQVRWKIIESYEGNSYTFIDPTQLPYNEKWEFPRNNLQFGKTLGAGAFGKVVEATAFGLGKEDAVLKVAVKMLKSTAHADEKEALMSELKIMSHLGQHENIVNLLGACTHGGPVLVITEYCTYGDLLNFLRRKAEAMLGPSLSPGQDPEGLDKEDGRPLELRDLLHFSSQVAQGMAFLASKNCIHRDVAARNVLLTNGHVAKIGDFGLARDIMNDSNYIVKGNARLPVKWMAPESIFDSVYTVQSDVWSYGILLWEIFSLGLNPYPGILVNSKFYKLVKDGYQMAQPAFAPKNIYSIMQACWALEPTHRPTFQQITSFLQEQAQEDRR
Protocol: (§3) Wild-type CSF-1R (residues 542–919, △696–741, C677T, C830S, C907T) and CSF-1R^T663I carrying an N-terminal 6×His tag was cloned into a pFastBac expression vector, and was expressed in SF9 cells using the Invitrogen Bac-to-Bac Baculovirus Expression System[41]. For crystallization, CSF-1R was co-expressed with N-terminal GST-tagged YOPH to induce non-phosphorylated proteins. The harvested cell pellets were lysed by sonication in lysis buffer consisting of 40 mM K-phosphate, pH 8.0, 200 mM NaCl, 0.5 mM PMSF, and protease inhibitor mixture (EDTA-free, Roche). After centrifugation, the clarified cell lysate was supplemented with 20 mM imidazole, and incubated with Ni-NTA beads (GE Healthcare). The Ni-NTA bead-bound CSF-1R protein was eluted using 25 mM HEPES, pH 7.0, 150 mM NaCl and 200 mM imidazole, and was subsequently supplemented with 10 mM DTT after elution. […]
as §2

FGFR4 [5] = target: T6, FGFR4 (Homo sapiens, UniProt P22455); assay: Kinase inhibition assay (ADP-Glo), FGFR4; assay type: biochemical
T6 construct: FGFR4 (residues 445–753); 6×His (PreScission-cleavable) (N, cleaved yes); made in house; host or cells: E. coli BL21 Rosetta
Protocol: as §1, §2

CSF-1R^T663I = target: T7, CSF-1R^T663I (Homo sapiens, UniProt P07333, C667T/C830S/C907T/DEL696-741/T663I); assay: Kinase inhibition assay (ADP-Glo), CSF-1R T663I gatekeeper mutant; assay type: biochemical; conditions: read-out: Kinase inhibitory activity CSF-1R^T663I IC50
T7 sequence (P07333 with tags, fused parts or gaps T663I/C667T/DEL696-741/C830S/C907T): T5 sequence (P07333 with tags, fused parts or gaps C667T/DEL696-741/C830S/C907T) with T122I
Protocol: as §3, §2

FGFR3^V555M = target: T8, FGFR3^V555M (Homo sapiens, UniProt P22607, V555M); assay: Kinase inhibition assay (ADP-Glo), FGFR3 V555M gatekeeper mutant; assay type: biochemical
T8 construct: FGFR3 (residues 450–758); 6×His (PreScission-cleavable) (N, cleaved yes); made in house; host or cells: E. coli BL21 Rosetta
Protocol: as §1, §2

FGFR3 [6] = target: T9, FGFR3 (Homo sapiens, UniProt P22607); assay: Kinase inhibition assay (ADP-Glo), FGFR3; assay type: biochemical; conditions: wild-type kinase domain
T9 construct: FGFR3 (residues 450–758); 6×His (PreScission-cleavable) (N, cleaved yes); made in house; host or cells: E. coli BL21 Rosetta
Protocol: as §1, §2

FGFR2 = target: T10, FGFR2 (Homo sapiens, UniProt P21802); assay: Kinase inhibition assay (ADP-Glo), FGFR2; assay type: biochemical; conditions: wild-type kinase domain
T10 construct: FGFR2 (residues 458–768); 6×His (PreScission-cleavable) (N, cleaved yes); made in house; host or cells: E. coli BL21 Rosetta
Protocol: as §1, §2

T4 sequence (P21802 458-768 V564I): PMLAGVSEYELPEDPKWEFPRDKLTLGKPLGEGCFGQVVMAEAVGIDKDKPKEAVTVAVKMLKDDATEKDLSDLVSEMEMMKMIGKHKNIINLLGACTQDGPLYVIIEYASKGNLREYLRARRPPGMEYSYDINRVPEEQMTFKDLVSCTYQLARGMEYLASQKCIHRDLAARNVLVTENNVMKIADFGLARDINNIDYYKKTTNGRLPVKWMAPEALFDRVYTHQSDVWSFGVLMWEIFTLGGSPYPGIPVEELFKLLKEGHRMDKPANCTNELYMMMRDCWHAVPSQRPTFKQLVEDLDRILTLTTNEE
T1 sequence (P11362 458-765 V561M): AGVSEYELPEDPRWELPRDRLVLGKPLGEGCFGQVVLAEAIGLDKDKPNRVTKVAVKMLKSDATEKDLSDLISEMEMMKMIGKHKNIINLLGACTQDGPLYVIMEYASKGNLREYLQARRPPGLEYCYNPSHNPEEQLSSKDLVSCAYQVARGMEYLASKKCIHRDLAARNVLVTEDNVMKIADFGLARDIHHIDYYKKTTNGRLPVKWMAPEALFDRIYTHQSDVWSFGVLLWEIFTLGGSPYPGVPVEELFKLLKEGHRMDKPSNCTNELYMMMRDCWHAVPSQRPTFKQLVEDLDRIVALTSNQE
T3 sequence (P21802 458-768 V564F): as the sequence (P21802 458-768 V564I) above, with I107F counted along it
T6 sequence (P22455 445-753): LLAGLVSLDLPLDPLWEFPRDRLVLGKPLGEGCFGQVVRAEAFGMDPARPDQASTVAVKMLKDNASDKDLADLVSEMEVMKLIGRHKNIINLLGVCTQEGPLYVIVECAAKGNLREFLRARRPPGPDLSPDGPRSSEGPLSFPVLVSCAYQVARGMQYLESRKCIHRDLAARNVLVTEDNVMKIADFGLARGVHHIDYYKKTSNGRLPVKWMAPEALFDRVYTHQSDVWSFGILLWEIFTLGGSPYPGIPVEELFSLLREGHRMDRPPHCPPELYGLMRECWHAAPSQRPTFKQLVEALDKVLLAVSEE
T8 sequence (P22607 450-758 V555M): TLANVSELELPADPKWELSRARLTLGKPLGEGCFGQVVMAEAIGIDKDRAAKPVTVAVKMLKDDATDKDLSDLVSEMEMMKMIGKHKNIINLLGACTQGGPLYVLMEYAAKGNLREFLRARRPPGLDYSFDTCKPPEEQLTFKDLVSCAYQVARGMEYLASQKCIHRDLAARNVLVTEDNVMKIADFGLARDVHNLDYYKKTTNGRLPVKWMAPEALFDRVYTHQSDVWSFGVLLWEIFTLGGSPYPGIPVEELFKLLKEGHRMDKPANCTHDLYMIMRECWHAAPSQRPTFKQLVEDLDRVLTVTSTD
T2 sequence (P11362 458-765): as the sequence (P11362 458-765 V561M) above, with M104V counted along it
T10 sequence (P21802 458-768): as the sequence (P21802 458-768 V564I) above, with I107V counted along it
T9 sequence (P22607 450-758): as the sequence (P22607 450-758 V555M) above, with M106V counted along it

pIC50 (FGFR1^V561M; ADP-Glo, read-out: Kinase inhibitory activity FGFR1^V561M IC50)	pIC50 (FGFR1^V561M; bound stated, read-out: IC50 for FGFR1^V561M)	pIC50 (FGFR1)	pIC50 (FGFR2^V564F; ADP-Glo, read-out: Kinase inhibitory activity FGFR2^V564F IC50)	pIC50 (FGFR2^V564F; bound stated, read-out: IC50 for FGFR2^V564F)	pIC50 (FGFR2^V564I; ADP-Glo, read-out: Kinase inhibitory activity FGFR2^V564I IC50)	pIC50 (FGFR2^V564I; bound stated, read-out: IC50 for FGFR2^V564I)	pIC50 (CSF-1R [4])	reduction in efficacy for FGFR4 (FGFR4 [5]; FGFR4 IC50 compared with FGFR1)	pIC50 (FGFR4 [5]; wild-type kinase domain, ADP-Glo)	pIC50 (CSF-1R^T663I)	pIC50 (FGFR3^V555M; ADP-Glo, read-out: Kinase inhibitory activity FGFR3^V555M IC50)	pIC50 (FGFR3^V555M; bound stated, read-out: IC50 for FGFR3^V555M)	pIC50 (FGFR3 [6])	pIC50 (FGFR2)	SMILES	pIC50 (CSF-1R [1])	pIC50 (FGFR4 [2])	pIC50 (FGFR3 [3])
															C=CC(=O)N1CCN(CCCn2c(=O)c(-c3c(Cl)c(OC)cc(OC)c3Cl)cc3cnc(NC)nc32)CC1 [PRN1371, 8-(3-(4-Acryloylpiperazin-1-yl)propyl)-6-(2,6-dichloro-3,5-dimethoxyphenyl)-2-(methylamino)pyrido[2,3-d]pyrimidin-7(8H)-one]	8.09	7.71	[…]
< 5.30	< 5.70	7.47	5.53	< 5.70	5.46	< 5.70	8.30	approximately 26 fold	6.05	8.40	< 5.30	< 5.70	7.55	7.68	Cc1cc2cc(Oc3ccnc(Nc4cccc(CS(=O)(=O)NCCN(C)C)c4)n3)ccc2[nH]1 [sulfatinib]			
